Experimental data: a melting point compilation (Tetko et al.; mined from patent text by program, amines drawn as free bases though some values may be those of a salt)

SMILES | melting point [°C]
COc1ccc(Br)c(C(=O)N2CCN(S(=O)(=O)c3ccc(Br)cc3)CC2)c1 | 180
Cc1nc(-c2ccc(C=CC3(O)CN4CCC3CC4)cc2)no1 (centres undefined) | 188 to 189
Cc1c(-c2cc(O)c(Cl)cc2F)ncnc1C(F)(F)F | 141 to 142
CCOC(=O)c1nnn[nH]1 | 86 to 90
CC(C)=CC(=O)Nc1ccc2ncnc(Nc3cccc(Br)c3)c2c1 | 300 to 301
CCc1ccc2c(c1)C(=O)N(CCCCN1CCC(n3c(=O)oc4ccccc43)CC1)S2(=O)=O | 165 to 168
CCCCc1nc(=O)c2cc(C3=NN(C(c4ccccc4)(c4ccccc4)c4ccccc4)[C@H]4C(=O)N(C)C(=O)[C@@H]34)ccc2[nH]1 (relative stereo) | 182
CN(Cc1cccc(Cl)c1)c1ccc(C(=O)O)nc1 | 138 to 140
CN(C)C(=O)Nc1ccc(Oc2ccc3sncc3c2)cc1 | 156
COC(=O)C1=C(CCc2ccccc2)NC(CC(=O)N2CCN(C)CC2)=C(C(=O)OC)C1c1ccccc1Cl (centres undefined) | 138
COc1ccc2nc(NC(=O)C(CC3CCCC3)c3ccc(S(=O)(=O)NCc4ccccc4)cc3)sc2n1 (centres undefined) | 237 to 240
Clc1c2c(nc3ccc(C4CCCCC4)cc13)CCCC2 | 89 to 91
CCCCCCCCCCCCCCOc1ccc(N(CC(=O)O)CC(=O)O)cc1OCCCCCCCCCCCCCC | 89 to 93
COC(=O)c1sc2ccccc2c1OCC(C)=O | 57 to 58
NC(=O)OC(CC(=NNC(N)=S)c1ccccc1)c1ccccc1 (centres undefined) | 149 to 150
CCc1nc2c(cnn2CC)c(NC2CCOCC2)c1CNC(=O)c1cccc(C(=O)NCc2ccc(C)c(-c3cccc(CN4CCCN(C)CC4)c3)c2)c1 | 107 to 109
O=C(O)c1cc(SCc2ccsc2)c(-c2ccccc2)c([N+](=O)[O-])c1 | 159 to 161
CN1CCC[C@@H]1Cc1cn(Cc2ccccc2)c2ccc(CS(=O)(=O)N(C)C(c3ccccc3)c3ccccc3)cc12 | 117 to 120
CC(C)(O)c1ccc(-c2ccc3nnn(Cc4ccc5ncccc5c4)c3n2)cc1F | 85 to 89
CS(=O)(=O)OC1Cc2ccccc2C1 | 75 to 77
O=S(=O)(Cl)c1ccc(-c2ccc3c(c2)OCO3)s1 | 117 to 119

SMILES | melting point [°C]
CCCN1C(=O)OC2(CCN(CC=C(c3ccc(F)cc3)c3ccc(F)cc3)CC2)C1(C)O (centres undefined) | 128 to 129
O=C(Cl)c1cc([N+](=O)[O-])c(Cl)c([N+](=O)[O-])c1 | 55 to 57
On1c(-c2ccncc2)nc2ccc(Cn3ccnc3)cc21 | 198
CN(C)CC(=O)Nc1cccc2c1C(=O)c1c(NC(=O)CN(C)C)cccc1C2=O | 194 to 195
CN(C)C1CCN(C(=O)c2ccc(-c3[nH]nc4c3C(=O)c3c(NC(=O)NN5CCOCC5)cccc3-4)s2)C1 (centres undefined) | 216 to 217
Nc1cc(Br)cnc1CCCCNC1=NS(=O)N=C1NCc1ccncc1 (centres undefined) | 63 to 66
COc1nc(C(F)(F)C(F)(F)F)cc(=O)n1-c1cc(C(=O)O)c(Cl)cc1F | 197 to 199
COC(=O)NC1(c2ccc(C(C)C)cc2OC)C(=O)c2ccccc2C1=O | 153 to 155
CN(C)C(=O)CC1Cc2ccccc2NC1=O (centres undefined) | 172 to 173
CCc1nnc2c(Nc3ccc(Cl)cc3OC)nc3ccccc3n12 | 245 to 248
COc1cc2c(cc1C(F)(F)F)c(C(=O)Nc1cccnc1)cn2C | > 250
CN(C)C1(c2ccccc2)CCC(=CC(=O)NCCCCCc2c[nH]c3ccccc23)CC1 (centres undefined) | 68 to 72
CC=C1CC2C3CCc4cc(OC)ccc4C3CCC2(C)C1=O (centres undefined) | 139 to 140
N#CCCC1CN(C(=O)OCc2ccccc2)CCO1 (centres undefined) | 59 to 60
O=Cc1c2ccccc2c(C=O)c2cc(Cl)ccc12 | 192 to 195
Cc1noc(NS(=O)(=O)c2ccc(Cc3ccccc3)s2)c1Br | 49 to 50
CCN(CC)C(=O)c1nc(CCl)n(-c2ccc(Cl)cc2C(=O)c2ccccc2)n1 | 118 to 119
C=CCc1c2nc(C(=O)OC)cc(Cl)c2cc2c(=O)cc(C(=O)OCC)oc12 | 197 to 198
CCNC(=O)n1nc(Oc2ncc(C(F)(F)F)cc2Cl)c(C)c1C | 124 to 125
CCN(CC)C(=O)c1cc(OC)c(OC)cc1-c1c(C(=O)N(CC)CC)ccc2c1OCO2 | 148 to 149

Next, values leading:

melting point [°C] | SMILES
360 | C=CCOc1ccc(-c2ccc(C(=O)O)cc2)cc1
120 to 122 | CC(/C=C1/C(=O)N(c2ccccc2)C1c1ccccc1)=NOCCCN1CCCCC1 (centres undefined)
97 to 98 | O=Cc1cc(Br)cc(Cc2cccnc2)c1
155 to 157 | Nc1ccc2oc(-c3ccccc3)nc2c1
139 to 140 | CCCN1C(=O)c2cnc(-c3ccccc3)nc2N(C(=O)CCl)c2ccccc21
111 | COc1ccc(Cc2nccc3c4c(ccc23)OCO4)cc1OC
204 to 206 | CCN1CCN(c2nc(-c3ccc(O)cc3)cc3ccccc23)CC1
180 to 181 | O=C(Nc1ccccc1C(F)(F)F)c1cc(-c2ccc(F)cc2F)ccc1O
33.5 to 35.5 | COC1=C(OC)C(=O)C(CCCCCC[C@H]2CC[C@H](O)CC2)=C(C)C1=O
206 to 208 | Cc1ccc(CS(=O)c2nc3cc4c(cc3[nH]2)OC(F)(F)O4)nc1 (centres undefined)
306 to 312 | Cc1cc(C)nc(-n2nc(S(=O)(=O)Nc3c(Cl)cccc3Cl)nc2N)n1
204 to 206 | CCOC(=O)c1nc(O)sc1-c1ccncc1
126 to 128 | CC(C)(C)CC(C)(C)c1ccc(OCC(=O)Nc2ccc(Cl)c(Nc3cc(=O)n(-c4c(Cl)cc(Cl)cc4Cl)[nH]3)c2)cc1
193 to 194 | Nc1c(NC(=O)CCl)ccc2c1C(=O)c1ccccc1C2=O
120 to 121 | C=C1NC(NC(C)CC)=C(C(=O)OCC)C(NN)=C1C#N (centres undefined)
143 | CC(=O)OC1CSC(Oc2c(C)ccnc2-c2cccnc2)C(OC(C)=O)C1OC(C)=O (centres undefined)
> 320 | O=C(O)C(=O)Nc1ccc(Oc2ccc(NC(=O)C(=O)O)cc2)cc1
142 to 143 | C[C@@H](n1cccn1)[C@](O)(Cn1ccnc1)c1ccc(F)cc1F
142 to 143 | CCCCCCCCOC(=O)c1cnc(C(=O)O)cn1
119 to 120 | CCCCCS(=O)(=O)NC(=O)/C=C/c1ccc(OCCOC)cc1Oc1ncc(Cl)cc1Cl

melting point [°C] | SMILES
94 to 95 | CN(C)c1nc(C(=O)NCCO[N+](=O)[O-])cs1
130 to 132 | CNC(=O)/C(=N/OC)c1ccccc1COc1cccc(SC)n1
80 to 82 | CC(C)Oc1ccc(NC=O)cc1C(F)(F)F
77 to 79 | N#CCSc1ccc([N+](=O)[O-])cc1
117 to 119 | CCOC(=O)Oc1ccc(S(=O)(=O)N2c3ccc(Cl)cc3-n3cccc3C2CC)cc1 (centres undefined)
114 to 115 | CS(=O)(=O)c1ccc(C2=C(c3ccc(CO)cc3)CCC2)cc1
52 to 54 | COc1cc(C=O)cc(Cl)c1OCCBr
70 | CCCC(=NOCC)C1=C(O)CC(c2cc3ccccc3o2)CC1=O (centres undefined)
203 to 205 | O=C(O)Cc1cc(Cc2nc3c(F)c(F)cc(F)c3s2)cc(C(=O)O)c1
157 to 158 | CC(C)c1nc(CO)n(C)c1Sc1cc(Cl)cc(Cl)c1
223 to 225 | COC(=O)CC1C(=O)Nc2cc(S(N)(=O)=O)sc2S1(=O)=O (centres undefined)
66 | Cc1ccc(-c2occc2C#N)cc1
201 to 203 | CCCOc1ccc(C(=O)OC)cc1-c1ccc(C#N)c(=O)[nH]1
225 to 226 | COc1cc(C=C(C#N)C(=O)Nc2cccc(Cl)c2)cc(Cl)c1O
255 to 257 | CCCC1(CCC)CC1(CN)C(=O)O (centres undefined)
170 to 171 | CCOC(=O)c1cn(C2CC2)c2c(F)c(F)c(F)c(F)c2c1=O
124 | COC(=O)c1ccc(Sc2ccccc2)cc1Sc1ccccc1
> 300 | CC1(C)CC(=O)C2=C(C1)NC1=C(C(=O)CC(C)(C)C1)C2c1ccc2c(c1)OCCO2
218 to 220 | NC1CCn2c1nc1cc(NC(=O)c3cc4cc(F)ccc4n3Cc3cccc(F)c3)cnc12 (centres undefined)
193 to 194 | NC(=O)c1cnn2c(=O)n(CCCl)nnc12

melting point [°C] | SMILES
92 to 98 | CCCCNC(=O)c1c(N)cc(Cl)cc1Cl
137 to 140 | COc1nc2cc(Cl)cc(C#CCO)c2nc1OC
267 to 270 | O=c1[nH]c(SCc2ccccc2)nc2c1NCN2C(c1ccccc1)(c1ccccc1)c1ccccc1
280 | NS(=O)(=O)c1ccc(NC(=O)c2cccnc2SSc2ncccc2C(=O)Nc2ccc(S(N)(=O)=O)cc2)cc1
130 to 131 | Cc1nnc(-c2ccc3occ(-c4cc(F)ccc4Cl)c3c2)o1
101 | CN(CCCCNC(=O)NCCSCc1csc(NC(=N)N)n1)CCOC(c1ccccc1)c1ccccc1
149 to 150 | Cc1ccsc1C(=O)c1cc(CN(C)C)c(O)c(C(C)(C)C)c1
218 to 220 | Cc1c(C)c2c(c(C)c1NC(=O)c1ccccc1)C(c1ccc(C(C)C)cc1)C(C)(C)O2 (centres undefined)
213 | N#Cc1ccc(C(=O)Nc2ccc(Cl)c([N+](=O)[O-])c2)cc1
159 to 161 | COc1ccc(C(=O)CC(C#N)c2ccc3c(c2)OCO3)cc1OC (centres undefined)
143 to 146 | O=C(CCCCC(=O)Oc1ccc(NC(=O)c2ccccc2)cc1)CC1CC(O)CC1=O (centres undefined)
130 to 131 | CSc1ccc(C2OC(=O)NC2O)cc1 (centres undefined)
62 to 63 | CCCc1c(OCCCCCC#N)ccc(C(=O)c2ccccc2O)c1O
93 to 97 | CCCCOCC(=O)NNC(=O)N1Cc2ccccc2Oc2ccc(Cl)cc21
200 to 201 | N#Cc1ccc(F)cc1-c1cc(-c2cnc3nc(C(F)(F)F)cnn23)ccc1F
93 to 94 | O=C(O)CSCCCCCNS(=O)(=O)c1ccc(Cl)cc1
131 to 132 | CC(O)c1occc(=O)c1O (centres undefined)
146 to 150 | C[C@@H](F)c1nc(N)nc(N[C@H]2c3ccccc3C[C@@H]2C)n1
